Results: the Biogen ADME set (Fang et al. 2023)
Values after ≈ are worked out from the molar mass of the structure shown.

Settings: for aqueous solubility: pH 6.8

MDR1-MDCK efflux ratio	intrinsic clearance, human liver microsomes	intrinsic clearance, rat liver microsomes	aqueous solubility	fraction unbound, human plasma	fraction unbound, rat plasma	SMILES
0.788	≤ 0.284 L/h/kg	≤ 0.64 L/h/kg	0.029 mg/mL (≈ 145 µM)			CCONC(=O)c1sc(C)nc1C
1.41	1.33 L/h/kg	3.04 L/h/kg				CCCC(=O)Nc1ccc(C(=O)N(C)C)cc1
	2.23 L/h/kg	5.26 L/h/kg				Nc1nc2ccccc2n1C1CCCC1
20.2	0.39 L/h/kg	1.94 L/h/kg				CN(C)C(=O)c1cncc(N(C)CCN(C)C2CCCC2)n1
0.65	≤ 0.284 L/h/kg			0.0145		Cc1nnc(-c2ccc(N3CCC(Oc4cc(F)ccc4Cl)CC3)nn2)o1
0.565	0.292 L/h/kg	6.58 L/h/kg				O=c1cc2c(n[nH]1)-c1cnc(N3CCCCC3)nc1CC2
2.55	3.7 L/h/kg	133 L/h/kg				CCOc1ccc(CN[C@@H]2CCC[C@H]2Cc2cc(C)no2)cc1OC
4.08	≤ 0.284 L/h/kg	3.29 L/h/kg	0.0784 mg/mL (≈ 186 µM)			CCn1c(C)nc2cc(NC(=O)c3ccc(=O)n(CC(=O)N4CCCCC4)c3)ccc21
	16.1 L/h/kg	327 L/h/kg				O=C(CCn1ccc2ccccc21)N1CCC(n2c(=O)[nH]c3ccccc32)CC1
16	≤ 0.284 L/h/kg	≤ 0.64 L/h/kg	0.0434 mg/mL (≈ 148 µM)			c1ccc2c(N3CCn4c(nnc4C4CC4)C3)ncnc2c1
0.708	1.24 L/h/kg	133 L/h/kg	0.0417 mg/mL (≈ 148 µM)	0.233	0.248	OCC1CCCCN1Cc1ccc(-c2ccccc2)cc1 (stereo unspecified)
0.62	≤ 0.284 L/h/kg	≤ 0.64 L/h/kg				O=C(NCc1cccs1)c1cccnc1
	≤ 0.284 L/h/kg	≤ 0.64 L/h/kg	0.041 mg/mL (≈ 160 µM)			Fc1ccc(-c2cc(C3CCNCC3)ccn2)cc1
	9.34 L/h/kg	74.8 L/h/kg				COc1ncccc1CNc1c(C#N)cnc2c(C)cc(F)cc12
23.1	0.886 L/h/kg	≤ 0.64 L/h/kg	0.0461 mg/mL (≈ 69.3 µM)	0.162		C[C@H]1CN(C2COC2)CCN1c1ccc(Nc2cc(-c3ccnc(N4CCn5c(cc6c5CC(C)(C)C6)C4=O)c3CO)cn(C)c2=O)nc1
	6.3 L/h/kg	52.7 L/h/kg	0.037 mg/mL (≈ 148 µM)			c1cnc(NCCc2cccc3cccnc23)nc1
40.4	0.824 L/h/kg	7.86 L/h/kg				CCc1nnc(Nc2cc(C)nc(C3CN(C(=O)C(C)C)CCO3)c2)s1 (stereo unspecified)
	0.365 L/h/kg	2.32 L/h/kg				COc1ccc2c(c1)CC[C@@H]1[C@@H]2CC[C@]2(C)[C@@H](NCCCCCCN3C(=O)C=CC3=O)CC[C@@H]12
5.44	1.52 L/h/kg	3.78 L/h/kg				C[C@]12C=CC(=O)C=C1CC[C@@H]1[C@@H]2[C@@H](O)C[C@@]2(C)[C@H]1CC[C@]2(O)C(=O)CO
	1.27 L/h/kg	9.23 L/h/kg	0.0227 mg/mL (≈ 54 µM)			CCOc1cc(CNc2ccc(N3CCOCC3)c(C(=O)O)c2)cc(Cl)c1OC
0.528	6.87 L/h/kg	19 L/h/kg				O=c1c2cccc(C(F)(F)F)c2ncn1C1CCCC1
	0.853 L/h/kg	7.95 L/h/kg	0.00296 mg/mL (≈ 6.03 µM)			CS(=O)(=O)c1cccc(CNc2nc(Nc3ccc4c(c3)CCC(=O)N4)ncc2C(F)(F)F)c1
1.01	≤ 0.284 L/h/kg	≤ 0.64 L/h/kg	0.0582 mg/mL (≈ 264 µM)			NC(=O)CC1CCN(c2ncccn2)CC1

Further lines, the compound ahead of its results:

SMILES	MDR1-MDCK efflux ratio	intrinsic clearance, human liver microsomes	intrinsic clearance, rat liver microsomes	aqueous solubility	fraction unbound, human plasma	fraction unbound, rat plasma
CC1=NN(c2ccc(F)cc2)C(=O)/C1=C(/C)Nc1ccc(S(N)(=O)=O)cc1	12	≤ 0.284 L/h/kg	≤ 0.64 L/h/kg	0.0284 mg/mL (≈ 73 µM)		
Cc1nc(C(=O)NC2CC2)ccc1C#N				0.0362 mg/mL (≈ 180 µM)		
COc1ccccc1CNc1n[nH]c2nc([C@H]3CCCN(CC(=O)N4CCCC4)C3)ccc12	43.9	1.38 L/h/kg	25.3 L/h/kg	0.0549 mg/mL (≈ 122 µM)		
Cc1nn(C)c(C)c1-c1cc(C(C)(C)C)nc(N(C)C)n1	0.619	3.1 L/h/kg	21.9 L/h/kg			
Cc1ncsc1C(=O)N1C[C@@H]2CCCN(C(=O)c3scnc3C)[C@@H]2C1	82	≤ 0.284 L/h/kg	0.659 L/h/kg	0.0759 mg/mL (≈ 202 µM)		
CC(C)(C)C(=O)N1CCC(CN2C(=O)C(=O)N(C3CCCC3)C2=O)CC1	2.03	1.33 L/h/kg	17.3 L/h/kg	0.0668 mg/mL (≈ 184 µM)		
COc1ccc(CNC(=O)CCCOc2ccc(C(C)=O)cc2)cc1	1.02	2.07 L/h/kg	38.7 L/h/kg	0.0202 mg/mL (≈ 59.2 µM)		
c1ccc(-c2c(-c3ccc(OCCN4CCCC4)cc3)[nH]c3ncnc(NCC4SCCS4)c23)cc1	25	4.81 L/h/kg	9.92 L/h/kg	0.00372 mg/mL (≈ 7.19 µM)		
Cn1cnc2ncn(Cc3nc(CCc4ccc(Cl)cc4)no3)c(=O)c21	15.7	1.08 L/h/kg	12.8 L/h/kg			
C=CCc1ccccc1OCC(O)CNC(C)C (stereo unspecified)						0.313
COc1ccc(-c2cccc(C3CCCN(C(=O)C4CCCC4)C3)n2)cc1 (stereo unspecified)	0.717	10.5 L/h/kg	119 L/h/kg	0.00245 mg/mL (≈ 6.72 µM)		
O=C(NCc1cccc(O)c1)Nc1nc(-c2ccncc2)cs1		5.86 L/h/kg	14.7 L/h/kg			
CCCS(=O)(=O)NC1CCN(Cc2ccc(C)c(OC)c2)CC1	1.43	0.988 L/h/kg	47.9 L/h/kg			
O=S(=O)(c1cn[nH]c1)N1CCCC(c2cccc(-c3cccc(Cl)c3)n2)C1 (stereo unspecified)	3	3.16 L/h/kg	23.6 L/h/kg	0.00145 mg/mL (≈ 3.6 µM)		
CN(Cc1cccc(Cl)c1Cl)Cc1cc(=O)n(C)c(=O)n1C	0.829	11.4 L/h/kg	166 L/h/kg			
COc1ccc(-c2nc3cc(C)ccc3cc2CN(C)Cc2nccn2C)cc1	4.84	17.7 L/h/kg	150 L/h/kg	0.018 mg/mL (≈ 46.6 µM)		
Cc1cccc(NC(=O)CN2CCCN(c3ccc(C(F)(F)F)cn3)CC2)c1	0.951	9.02 L/h/kg	43.4 L/h/kg	0.0257 mg/mL (≈ 65.5 µM)		
O=C(Nc1cccnc1)c1ccccc1Cc1ccccc1	0.612	2.04 L/h/kg	27.7 L/h/kg	0.0705 mg/mL (≈ 245 µM)		

SMILES	MDR1-MDCK efflux ratio	intrinsic clearance, human liver microsomes	intrinsic clearance, rat liver microsomes	aqueous solubility	fraction unbound, human plasma	fraction unbound, rat plasma
O=S1(=O)CCN(C2CCN(CC(F)(F)F)CC2)CC1	0.765	≤ 0.284 L/h/kg	1.21 L/h/kg			
OC(Cn1cncn1)(Cn1cncn1)c1ccc(F)cc1F	5.25	≤ 0.284 L/h/kg	≤ 0.64 L/h/kg	0.0429 mg/mL (≈ 140 µM)		
Cn1ncc2c(NOCc3ccccc3)ncnc21		0.912 L/h/kg	2.98 L/h/kg			
Cc1cc(C)nc(SCC(=O)N2c3ccccc3C(C)(c3ccccc3)CC2(C)C)n1 (stereo unspecified)		142 L/h/kg	188 L/h/kg			
Cn1ccc(CN2C(=O)c3ccccc3C2=O)cc1=O	1.9	≤ 0.284 L/h/kg	0.725 L/h/kg	0.05 mg/mL (≈ 187 µM)		
CN(Cc1cnc2ccccc2n1)S(=O)(=O)N1CCCCCC1	0.62	13.8 L/h/kg	345 L/h/kg			
N#CCCCN1CCC(c2c[nH]c3ccccc23)CC1	0.46	1.43 L/h/kg	104 L/h/kg	0.0546 mg/mL (≈ 204 µM)		
CC(=O)N[C@H]1CC2(CCN(C(=O)COc3cc(C)c(Cl)c(C)c3)CC2)OC[C@]1(C)O	42.6	1.46 L/h/kg	9.96 L/h/kg			
Nc1ccnc2ccc(Oc3ccccc3)cc12	0.486	0.809 L/h/kg	140 L/h/kg			
CNC(=O)c1cc(-c2ccccc2)no1				0.037 mg/mL (≈ 183 µM)		
N#Cc1cnn(-c2ccc(F)cc2)c1N				0.0292 mg/mL (≈ 144 µM)		
Cc1nccc(-c2cccc(NCC(=O)N3CCCCCCC3)c2)n1	0.748	18.1 L/h/kg	123 L/h/kg	0.0556 mg/mL (≈ 164 µM)		
COCCCNc1ncc(-c2cc(C)no2)c(C(C)C)n1	0.439	2 L/h/kg	358 L/h/kg			
C#CCNC(=O)CN1C(=O)c2ccccc2C1=O				0.0389 mg/mL (≈ 161 µM)		
COc1ccc(CNc2c(-c3ccc(OC)c(OC)c3)nc3cnccn23)cc1	2.42	40.5 L/h/kg	117 L/h/kg	0.0469 mg/mL (≈ 120 µM)		
Cc1noc(C2CCN(CC(N)=O)CC2)n1		0.599 L/h/kg	1.78 L/h/kg	0.0307 mg/mL (≈ 137 µM)		
CCN(C(=O)c1cccc(-n2cccn2)c1)c1ccc(C#N)c(Cl)c1		4.74 L/h/kg	124 L/h/kg			
